Results on one compound are retold here after US5583123A, “Certain tetrazole derivatives” (priority 1994, dated 1996).

For the assay, the target named is T1, Endothelin converting enzyme (ECE) (Sus scrofa, UniProt A0A8W4FBH0).
T1 construct: partially purified from porcine primary aortic endothelial cells; endogenous in cells; host or cells: porcine primary aortic endothelial cells (partially purified by DE52 anion exchange)
T1 sequence (A0A8W4FBH0 1-751): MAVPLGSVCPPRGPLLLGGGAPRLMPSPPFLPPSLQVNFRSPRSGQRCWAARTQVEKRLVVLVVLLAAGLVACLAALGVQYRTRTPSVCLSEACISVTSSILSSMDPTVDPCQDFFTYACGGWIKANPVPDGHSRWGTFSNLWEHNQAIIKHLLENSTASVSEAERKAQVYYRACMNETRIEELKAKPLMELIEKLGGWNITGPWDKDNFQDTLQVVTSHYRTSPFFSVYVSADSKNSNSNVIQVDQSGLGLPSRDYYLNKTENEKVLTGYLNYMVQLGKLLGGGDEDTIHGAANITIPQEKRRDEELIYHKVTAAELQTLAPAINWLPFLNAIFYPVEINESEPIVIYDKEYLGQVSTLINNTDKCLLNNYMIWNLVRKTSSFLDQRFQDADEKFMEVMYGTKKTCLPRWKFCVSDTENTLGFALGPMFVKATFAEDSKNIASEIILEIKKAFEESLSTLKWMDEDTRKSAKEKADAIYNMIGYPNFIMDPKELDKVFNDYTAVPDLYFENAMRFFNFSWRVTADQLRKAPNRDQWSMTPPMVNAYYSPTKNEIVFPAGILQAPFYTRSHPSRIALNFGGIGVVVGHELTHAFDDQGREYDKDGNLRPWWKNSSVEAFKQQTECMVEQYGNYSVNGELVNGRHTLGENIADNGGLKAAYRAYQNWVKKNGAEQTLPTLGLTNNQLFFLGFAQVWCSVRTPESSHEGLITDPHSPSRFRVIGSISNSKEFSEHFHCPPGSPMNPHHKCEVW
Kind of assay: in vitro assay for endothelin converting enzyme inhibition (radioimmunoassay of ET-1 formed from big ET-1). In kind it is biochemical, porcine. The text has this:
The ECE inhibition can be determined as described in Biochem. Mol. Biol. Int. […] In vitro testing is most appropriate for the free phosphonic acids of the invention.

Regarding `O=P(O)(O)C(CCc1cccc2ccccc12)N[C@@H](Cc1ccc(-c2ccccc2)cc1)c1nnn[nH]1` (single isomer, unassigned) [1 (a)], where the note is “ECE partially purified from porcine primary aortic endothelial cells, pH 7.4 buffer”, the IC50 was approximately 370 nM. In addition, the “relative activity as ECE inhibitor (diastereomer A versus diastereomer B)” value (comparison of the two diastereomers of Example 1) is on record as “more active”.
